Data from PubChem BioAssay (NCI).
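Values below derive from 48-hour exposures of cells grown in 96-well plates, with endpoints linearly interpolated between the two concentrations bracketing the appropriate inhibition level. GI50 is the concentration that inhibits growth by half. TGI: total growth inhibition.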 Where a SMILES comes first, the peptide text is derived from it.

How the values were obtained:
Test in all cases: NCI tumour cell line growth inhibition, 48 h
[1] = tested on: U251 CNS
[2] = tested on: UACC-62 melanoma
[3] = tested on: SK-MEL-2 melanoma
[4] = tested on: LOX IMVI melanoma
[5] = tested on: A549 NSCLC
[6] = tested on: NCI-H460 lung
[7] = tested on: SF-268 CNS
[8] = tested on: M14 melanoma
[9] = tested on: NCI-H23 lung
[10] = tested on: UACC-257 melanoma

Structure (SMILES) | TGI [1] [µM] | TGI [2] [µM] | TGI [3] [µM] | TGI [4] [µM] | TGI [5] [µM] | TGI [6] [µM] | TGI [7] [µM] | TGI [8] [µM] | TGI [9] [µM] | TGI [10] [µM] | GI50 [10] [µM] | GI50 [1] [µM] | GI50 [2] [µM] | GI50 [3] [µM] | GI50 [4] [µM] | GI50 [5] [µM] | GI50 [6] [µM] | GI50 [7] [µM] | GI50 [8] [µM] | GI50 [9] [µM]
COc1ccc(C(c2ccc(C(C)C)cc(=O)c2O)c2ccc3cccnc3c2O)cc1 (centres undefined) | 3.5 | 4.63 | 30.1 | > 100 | 12.3 | 10.1 | 10.4 | 3.06 | 1.58 |  |  |  |  |  |  |  |  |  |  | 
COC(=O)C1(C(=O)OC)CC2c3c(c4ccccc4n3C)CC(C1=O)N2Cc1ccccc1 (centres undefined) | > 100 | > 100 | > 100 | > 100 | > 100 | > 100 | > 100 | > 100 | > 100 | > 100 |  |  |  |  |  |  |  |  |  | 
ClCc1ccc(-c2ccc(Cn3cnc4c(Cl)nc(Cl)nc43)cc2)cc1 | 3.64 | 6.35 | 3.42 | 3.2 | 3.59 | 10.6 | 4.77 | 32.3 | 14.4 | 3.64 | 1.5 | 1.89 | 2.49 | 1.88 | 1.64 | 1.73 | 3 | 2.01 | 13.4 | 3.18
CC(C)CC(NC(=O)C(CC(C)C)NC(=O)C(Cc1cnc[nH]1)NC(=O)C(C)NC(=O)C(NC(=O)C(C)NC(=O)C(Cc1c[nH]c2ccccc12)NC(=O)C(CCC(=O)O)NC(=O)C(N)Cc1ccccc1)C(C)C)C(N)=O (centres undefined) (H-FEWAVAHLL-NH2; configuration not given here) | > 100 | > 100 | > 100 | > 12.5 | > 100 | > 100 | > 12.5 | > 100 | > 100 | > 100 | > 100 | > 100 | > 100 | > 100 |  | > 100 | > 100 |  | > 100 | > 100
COc1cc(/C=C2\CN(C)C/C(=C\c3cc(OC)c(OC)c(OC)c3)C2=O)cc(OC)c1OC | 0.746 | 0.383 | 0.959 | 0.37 | 1.59 | 0.654 | 1.6 | 1.57 | 1.61 | 0.758 | 0.245 | 0.257 | 0.186 | 0.305 | 0.141 | 0.37 | 0.252 | 0.346 | 0.306 | 0.42
ClC1CCC2OOC1O2 (centres undefined) | > 100 | > 100 | > 100 | > 100 | > 100 | > 100 | > 100 | > 100 | > 100 | > 100 |  |  |  |  |  |  |  |  |  | 
Cc1oc2c(C)c(O)c3c(c2c1C1(C)OCCO1)C(=O)C=C(Cl)C3=O | > 100 |  | > 100 | > 100 | > 100 | > 100 | > 100 | > 100 | > 100 | > 100 |  |  |  |  |  |  |  |  |  | 
CC(=O)NC(CCCCNC(=O)N(CCCl)N=O)C(=O)NCc1ccccc1 (centres undefined) | > 100 | > 100 | > 100 |  | > 100 | > 100 | > 100 | > 100 | > 100 | > 100 |  |  |  |  |  |  |  |  |  | 
NC(CNO)C(=O)O (centres undefined) | > 100 | > 100 | > 100 | > 100 | > 100 | > 100 | > 100 | > 100 | > 100 | > 100 |  |  |  |  |  |  |  |  |  | 
CCOC(=O)c1ccc(N(CCOS(C)(=O)=O)CCOS(C)(=O)=O)cc1C | > 100 | 95.4 | 67.5 | > 100 | > 100 | > 100 | 82.7 | > 100 | 55.5 | > 100 | 69.6 | 26.4 | 23.8 | 28.6 | 29.1 | 44.5 | 27.8 | 22 | 40.5 | 15.1
CN[C@]12CC3(C=CC(=O)C=C3)O[C@@]1(Cc1ccc(OC)cc1)N(C)C(=O)N2 | 3.99 | 3.34 | 10.9 | 3.2 | 14 | 13.7 | 9.82 | 7.6 | 9.35 | 19.8 | 3.52 | 1.85 | 1.46 | 2.96 | 1.56 | 3.11 | 3.44 | 2.85 | 1.99 | 2.88
COc1cc2nc(Sc3c([N+](=O)[O-])ncn3C)[nH]c2cc1OC | > 100 | 75.8 |  | > 100 | > 100 | > 100 | 69.9 | > 100 | > 100 | 78.3 |  |  |  |  |  |  |  |  |  | 
Cn1ncc2c(/N=C/c3cccs3)[nH]c(=S)nc21 | > 100 | 52.4 | > 100 | > 100 | > 100 | > 100 | > 94.6 | > 100 | > 76.1 | > 100 | > 65.4 | 43.1 | 19.6 | > 64.5 | 36.4 | 47.4 | 31 | 26.2 | 45.7 | 33.7
COC(=O)C(C)NP(=O)(OCc1ccc(Cn2cnc3c(=O)[nH]c(N)nc32)cc1)Oc1ccccc1 (centres undefined) | > 100 | > 100 | > 100 | > 100 | > 100 | > 100 | > 100 | > 100 | > 100 | > 100 | > 100 | > 100 | > 100 | > 100 | > 100 | > 100 | > 100 | > 100 | > 100 | > 100
O=C1OCc2c1cc(F)cc2[N+](=O)[O-] | > 100 | > 100 | > 100 | > 100 | > 100 | > 100 | > 100 | > 100 | > 100 | > 100 | > 100 | > 100 | > 100 | > 100 | > 100 | > 100 | > 100 | > 100 | > 100 | > 100
